Data reported in patent US11124554B2, “Modified ligand-gated ion channels and methods of use” (Howard Hughes Medical Institute, priority 2016, dated 2021).
Read-outs that look alike come from different tables or passages of the source.

Experiments:
[1] = molecular target: T1, α7-5HT3 (Homo sapiens, UniProt P36544, M226I/T225I); assay: Agonist potency (EC50), HEK cells expressing chimeric channel; assay type: cell-based, human α7 nAChR LBD, murine 5HT3 IPD
T1 construct: expressed in transfected cells; host or cells: HEK cells
T1 sequence (P36544 with tags, fused parts or gaps T225I/M226I): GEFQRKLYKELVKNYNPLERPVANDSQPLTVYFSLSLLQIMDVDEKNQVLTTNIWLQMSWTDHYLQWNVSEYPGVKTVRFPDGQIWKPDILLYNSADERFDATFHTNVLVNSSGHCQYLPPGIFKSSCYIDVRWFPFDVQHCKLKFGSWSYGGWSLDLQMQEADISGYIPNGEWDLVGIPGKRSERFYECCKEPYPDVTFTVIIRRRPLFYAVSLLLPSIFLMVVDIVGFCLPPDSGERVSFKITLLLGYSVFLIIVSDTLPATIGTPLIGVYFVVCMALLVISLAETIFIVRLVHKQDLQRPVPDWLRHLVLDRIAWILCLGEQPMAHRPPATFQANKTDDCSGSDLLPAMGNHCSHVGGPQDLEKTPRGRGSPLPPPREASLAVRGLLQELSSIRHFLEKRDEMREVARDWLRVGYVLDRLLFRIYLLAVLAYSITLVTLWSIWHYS

[2] = molecular target: T2, α7^Q79G-GlyR^A298G (Homo sapiens, UniProt P36544, A298G/Q79G); assay: as above; assay type: cell-based
T2 construct: expressed in transfected cells; host or cells: HEK cells
T2 sequence (P36544 with tags, fused parts or gaps Q79G): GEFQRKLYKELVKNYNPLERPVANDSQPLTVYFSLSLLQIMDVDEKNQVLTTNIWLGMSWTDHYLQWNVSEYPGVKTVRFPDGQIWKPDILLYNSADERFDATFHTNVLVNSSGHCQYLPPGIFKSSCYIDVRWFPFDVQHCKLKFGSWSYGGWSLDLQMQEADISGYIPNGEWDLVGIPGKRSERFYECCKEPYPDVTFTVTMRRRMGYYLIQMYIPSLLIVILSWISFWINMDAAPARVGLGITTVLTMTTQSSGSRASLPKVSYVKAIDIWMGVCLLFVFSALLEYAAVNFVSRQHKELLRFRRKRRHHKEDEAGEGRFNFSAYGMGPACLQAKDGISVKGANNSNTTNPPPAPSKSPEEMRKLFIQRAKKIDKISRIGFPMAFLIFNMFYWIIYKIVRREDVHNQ

[3] = molecular target: T3, α7-GlyR (Homo sapiens, UniProt P36544); assay: as above; assay type: cell-based
T3 construct: expressed in transfected cells; host or cells: HEK cells
T3 sequence (P36544 with tags, fused parts or gaps): as the sequence (P36544 with tags, fused parts or gaps Q79G) above, with G57Q, G276A counted along it

[4] = molecular target: T4, α7^Q79G,Y115F,G175K-GlyR (Homo sapiens, UniProt P36544, G175K/Q79G/Y115F); assay: Agonist potency at chimeric channel; assay type: cell-based; conditions: Table 6; read-out: Potency, a7Gly Q79G G175K Y115F
T4 construct: expressed in transfected cells
T4 sequence (P36544 with tags, fused parts or gaps Q79G/Y115F/G175K): as the sequence (P36544 with tags, fused parts or gaps Q79G) above, with Y93F, G153K, G276A counted along it

[5] = molecular target: T5, α7^Y115F,G175K-GlyR (Homo sapiens, UniProt P36544, G175K/Y115F); assay: Agonist potency at chimeric channel; assay type: cell-based; conditions: Table 6; read-out: Potency, a7GlyR Y115F G175K
T5 construct: expressed in transfected cells
T5 sequence (P36544 with tags, fused parts or gaps Y115F/G175K): as the sequence (P36544 with tags, fused parts or gaps Q79G) above, with G57Q, Y93F, G153K, G276A counted along it

[6] = molecular target: T6, α7^Q79G,G175K-GlyR (Homo sapiens, UniProt P36544, G175K/Q79G); assay: Agonist potency at chimeric channel; assay type: cell-based; conditions: Table 6; read-out: Potency, a7GlyR Q79G G175K
T6 construct: expressed in transfected cells
T6 sequence (P36544 with tags, fused parts or gaps Q79G/G175K): as the sequence (P36544 with tags, fused parts or gaps Q79G) above, with G153K, G276A counted along it

[7] = molecular target: T7, α7^G175K-GlyR (Homo sapiens, UniProt P36544, G175K); assay: Agonist potency at chimeric channel; assay type: cell-based; conditions: Table 6; read-out: Potency, a7GlyR G175K
T7 construct: expressed in transfected cells
T7 sequence (P36544 with tags, fused parts or gaps G175K): as the sequence (P36544 with tags, fused parts or gaps Q79G) above, with G57Q, G153K, G276A counted along it

[8] = molecular target: T8, α7GlyR Q79G G175K Y115F R27D E41R (Homo sapiens, UniProt P36544, E41R/G175K/Q79G/R27D/Y115F); assay: Agonist potency at chimeric channel; assay type: cell-based; conditions: Table 6; read-out: Potency, a7GlyR Q79G G175K Y115F R27D E41R
T8 construct: expressed in transfected cells
T8 sequence (P36544 with tags, fused parts or gaps R27D/E41R/Q79G/Y115F/G175K): as the sequence (P36544 with tags, fused parts or gaps Q79G) above, with R5D, E19R, Y93F, G153K, G276A counted along it

[9] = HEK cells, Table 3, read-out: α7-5HT3 EC50
[10] = HEK cells, Table 3, read-out: α7^Q79G-GlyR^A298G EC50
[11] = HEK cells, Table 3, read-out: α7-GlyR EC50
[12] = Table 6, read-out: Potency, a7-5HT3

Compound | EC50 [1, 9] [nM] | EC50 [2, 10] [nM] | EC50 [3, 11] [nM] | EC50 [1, 12] [nM] | also measured
O=C(NC1CN2CCC1CC2)c1ccc(C(F)(F)F)cn1 (stereo not drawn) [Compound 0295] | > 100000 | 4600 | > 100000 |  | 
CN(C)CCCN1c2ccccc2Sc2ccccc21 [Promazine] |  |  |  | > 100000 | EC50 [4]: > 100000 nM
S=C(Nc1ccc(Cl)cc1)NC1CN2CCC1CC2 (stereo not drawn) [Compound 0354] |  | 30 |  |  | partial agonist activity, α7-5HT3 ([1]; HEK cells, Table 3): partial; EC50 ([1]; read-out: α7-5HT3 EC50, HEK cells, Table 3): 1400 nM; EC50 [3]: 1000 nM
CN1C2CCC1CC(NC(=S)c1c[nH]c3ccccc13)C2 (stereo not drawn) [Compound 0542] | 3800 | 72 |  |  | 
CN1[C@@H]2CCC[C@H]1C[C@@H](NC(=S)c1ccc(Cl)cc1)C2 [Compound 0536] | > 33000 |  | > 100000 |  | EC50 [2]: 9100 nM
CN1C2CCCC1CC(NC(=O)c1nn(C)c3ccccc13)C2 (stereo not drawn) [Granisetron] |  |  |  |  | activation of α7-5HT3 [1]: does not activate; activation of α7-GlyR [3]: does not activate
Cc1ccc(Cl)cc1NC(=S)N[C@H]1CN2CCC1CC2 [Compound 705] |  |  |  | > 100000 | EC50 [5]: > 10000 nM
O=C(Nc1ccccc1)NC1CN2CCC1CC2 (stereo not drawn) [Compound 0353] | 650 | 10 | 270 |  | 
O=C(NC1C2CCN(CC2)C1Cc1cccnc1)c1ccc(C(F)(F)F)cc1 (mixture of isomers) [Compound 0436] | 840 | 6 | 310 |  | 
FC(F)(F)Oc1ccc(NC(=S)N[C@H]2CN3CCC2CC3)cc1 [Compound 684] |  |  |  | > 100000 | EC50 [6]: 78 nM; EC50 [4]: 790 nM; EC50 [7]: 230 nM; EC50 [8]: 400 nM
Fc1c(Cl)cccc1NC(=S)N[C@H]1CN2CCC1CC2 [Compound 701] |  |  |  | > 100000 | 
O=C(NC1CN2CCC1CC2)c1ccc(C(F)(F)F)nc1 (stereo not drawn) [Compound 0296] | > 100000 | 450 |  |  | 
Fc1ccc(Cl)cc1NC(=S)N[C@H]1CN2CCC1CC2 [Compound 703] |  |  |  | > 100000 | 
